Patent publication US8305585B2, “Fiber-optic assay apparatus based on phase-shift interferometry” (Pall Corporation, priority 2003, dated 2012)

Key:
anti-Lewis Y antibody = test: Negative control: binding to immobilized irrelevant antibody; conditions: 200 μg/mL biotin
Description: Another negative control was carried out using an irrelevant antibody (anti-Lewis Y antibody from Calbiochem, San Diego Calif.; cat #434636) immobilized in an identical fashion to the anti-biotin antibody above. This immobilized antibody was exposed to a solution of 200 μg/mL biotin.

[1] = test system: mouse anti-biotin antibody; test: Small molecule binding to immobilized anti-biotin antibody on NHS-ester activated tip; conditions: biotin 200 μg/mL, sucrose 2 mg/mL in PBS; FIG. 10
Description: This example illustrates the binding of a low molecular weight molecule binding to an immobilized high molecular weight molecule. […] The tip was rinsed with PBS for 2 minutes. Following the PBS rinse, the tip was quenched with an aqueous solution of 100 μM ethanolamine pH 8.5 (Sigma-Aldrich Chemical Company, St Louis, Mo.; cat #E9508) for 5 minutes and then was rinsed again in PBS for 2 minutes.
Controls using a solution of sucrose (Sigma-Aldrich Chemical Company, St Louis, Mo.; cat #S8501) (2 mg/mL) and PBS were carried out on the second and the third fibers to determine baseline noise.

[2] = Sequential binding test on biotin-derivatized sensor tip; conditions: 50 μg/ml in PBS, 9 minutes; FIG. 6
Description: The two-layer configuration on the tip of an optic fiber is used for this test. The thickness of the first Ta2O5 layer is 25 nm and the thickness of the second SiO2 layer is 770 nm. The fiber was purchased from Ocean Optics (Dunedin, Fla.). It was manually cut into segments that are 40 mm long. Both ends of these segments were polished to standard mirror surface quality. The polishing method used here was exactly the same as those for optical lenses and mirrors. One surface of these fiber segments was outsourced to an optical coating house for Ta2O5 layer and SiO2 layer. This vendor employed an ion-beam assisted physical vapor deposition (IAPVD) coater made by […] is a commonly used coating technique for anti-reflection and optical filters. The experimental steps included the following (all steps are performed at room temperature unless otherwise noted): The fiber tip was coated with a polymer monolayer derivatized with biotin. The polymer monolayer was prepared using a biotinylated lipid (custom). This lipid was using to form a lipid monolayer on the surface of water solution. The monolayer was cross linked using UV light for 15minutes. Clean, dry fibers were then brought in contact with the floating thin film and the biotin polymer was adsorbed onto the fiber tip. The fibers were then dryed at 60° C. for 1 hour. […]

O=C(O)CCCC[C@@H]1SC[C@@H]2NC(=O)N[C@@H]21 [biotin]
binding to irrelevant antibody (anti-Lewis Y antibody): lack of biotin binding
change in optical thickness on exposure (binding) [1]: increase in optical thickness

OC[C@H]1O[C@@](CO)(O[C@H]2O[C@H](CO)[C@@H](O)[C@H](O)[C@H]2O)[C@@H](O)[C@@H]1O [sucrose]
change in optical thickness on exposure (binding) [1]: no detectable increase over baseline

streptavidin: streptavidin (Pierce Biotechnology, cat #21122)
binding to immobilized biotin (7th order valley phase shift) [2]: binding
